Experiment [1] concerns human placental IGF-I receptor. The experiment can be described thus: Human placental IGF-I receptor binding assay (competition with 125I IGF-I). As to conditions: human placental membranes. Here is the method:
(§1) Metab., Vol.67, pgs. 194-197, the entire teaching of which is hereby incorporated by reference, except that the incubation was performed at 4° C. for 18 hours and membranes were collected on a Skatron Cell Harvester (commercially available from Skatron, Inc., Sterling, Va.). The glucose transport assay in rat adipocytes was performed in substantial accordance with the teachings of Kashwagi, M., et al., (1983) J. Clin, Invest., Vol.72, pgs. 1246-1254, the entire teaching of which is hereby incorporated by reference.

The test system of another experiment is rat adipocytes. The experiment can be described thus: Glucose transport assay in rat adipocytes. Type of experiment: cell-based. As to conditions: glucose uptake by adipocytes. As to the method:
as §1

In experiment [2] the test system is fasted, male, lean Sprague-Dawley rats. The experiment can be described thus: In vivo hypoglycemic effect in fasted rats. More on the design: species or system rat. As to conditions: for Max. hypoglycemic effect (percent) 1 hour: 1 hour after subcutaneous administration; for Max. hypoglycemic effect (percent) 1 hour / Max. hypoglycemic effect (percent) 2 hours: percent change from zero time corrected for control group; for Max. hypoglycemic effect (percent) 1 hour / Max. hypoglycemic effect (percent) 2 hours / ED50 1 hour / ED50 2 hours: mean ± S.E.M.; for Max. hypoglycemic effect (percent) 2 hours: 2 hours after subcutaneous administration; for ED50 1 hour: half the maximal hypoglycemic activity 1 hour after subcutaneous administration; for ED50 2 hours: half the maximal hypoglycemic activity 2 hours after subcutaneous administration. As to the method:
The data presented in Table III were obtained in tests carried out in fasted, male, lean Sprague-Dawley rats (Charles River Laboratories).
In vivo activity of ACB-proinsulins was determined in fasted rats. Male, lean Sprague-Dawley rats (obtained from Charles River Laboratories, Wilmington, Mass. 01887) 190-210 g bodyweight, were fasted for 16 hours. Ten animals were chosen at random and divided into two groups of five rats each. The control group received a subcutaneous saline injection (0.1 ml per 100 g bodyweight) while the experimental groups received a saline injection containing the test peptide. Blood (0.1 ml) was obtained from the tail of each rat for glucose determination (Sigma Diagnostics, glucose [Trinder], address) before administration of the peptide and again at 30 minutes, 1, 2, 3 and 4 hours after administration of the peptide.
The mean percent change from zero time plus or minus S.E.M. in blood glucose for control and treated groups of rats were calculated and the final results expressed by adjusting the change in the experimental group for the change in the control group. The effect of 5 to 7 different doses of each peptide was routinely determined.

For experiment [3], the system named is human placental insulin receptor. The experiment can be described thus: Human placental insulin receptor binding assay (competition with 125I insulin). As to conditions: placental membrane insulin receptors. As to the method: as §1

On to “IGF-I: human IGF-I, reference ligand of the IGF-I receptor”, for which the “ED50 IGF-I Receptor” value in experiment [1] came out at 0.45 nM.

For the substance “Insulin: human insulin, two-chain protein hormone, reference”, the “ED50 Glucose Transport” value in the experiment on rat adipocytes is 0.043 nM. In experiment [2], the “Max. hypoglycemic effect (percent) 1 hour” value is 59.0 ± 4.3%, the “Max. hypoglycemic effect (percent) 2 hours” value is listed as 45.7 ± 6.7%, the “ED50 1 hour” value worked out at 1.0 ± 0.01 nM and the “ED50 2 hours” value was found to be 1.6 ± 0.09 nM. Also, in experiment [2] (s.c. administration), the “time at which blood glucose levels returned to baseline” value was 3 to 4 h and the “time of maximal hypoglycemic response after subcutaneous administration” value is 1 h.

As to “Proinsulin: naturally occurring human (BCA) proinsulin, reference”, the “ED50 Insulin Receptor” value in experiment [3] amounted to 20.4 nM. In addition, the “ED50 IGF-I Receptor” value in experiment [1] is on record as 10000 nM. In addition, in experiment [2], the “Max. hypoglycemic effect (percent) 1 hour” value was found to be 55.1 ± 2.6%, the “Max. hypoglycemic effect (percent) 2 hours” value is reported as 61.0 ± 4.0%, the “ED50 1 hour” value is 91. ± 1.7 nM and the “ED50 2 hours” value was 8.2 ± 0.8 nM. The “Relative biological action to insulin 1 hour” value in experiment [2] (1 hour, subcutaneous, insulin = 100.0) is reported as 14.3 ± 2.8. Also, the “Relative biological action to insulin 2 hours” value in experiment [2] (2 hours, subcutaneous, insulin = 100.0) is recorded as 19.5 ± 1.8. The “time of maximal hypoglycemic response after subcutaneous administration” value in experiment [2] (s.c. administration) came out at 2 h.
